# Measured values taken from patent publication US5952530A, “Separation processes” (Union Carbide Chemicals & Plastics Technology Corporation, priority 1998, dated 1999).
# Read-outs that look alike come from different tables or passages of the source.
# Key:
# [1] = Partition of polar organic molecules between hexane and acetonitrile; type: physicochemical; conditions: hexane/acetonitrile equal volumes; GC; polar molecule wt%: propionaldehyde 7.5, butyraldehyde 5.2, valeraldehyde 5.5, 3-pentenenitrile 4.7
# Method: Solutions were prepared containing equal volumes of hexane and acetonitrile. To each solution was added a polar organic molecule identified in Table L below. The mixture was vigorously shaken, then allowed to settle and phase separate. The two phases were then analyzed for content of polar molecule by GC. In Table L, the percent by weight of polar molecule added to the hexane/acetonitrile solvent mixture together with Kpartition is given for various polar molecules.
# [2] = for Kpartition: hexane:acetonitrile (1:1) solvent system, summary table; for partition coefficient Kp: hexane/acetonitrile solvent system, examples, Tables A and B
# [3] = Extraction of Texanol from rhodium/Ligand E catalyst: Kpartition and selectivity; type: physicochemical
# Method: . To this mixture was added an equal volume of acetonitrile. The mixture was shaken for 30 minutes, then allowed to settle and phase separate for several hours. The two layers were then separated, and analyzed for content. The partition coefficient Kp of the catalyst is summarized in Table J below, together with the volume ratio of the two phases defined as Vratio=volume of the catalyst containing phase after extraction/volume of the extracting solution phase after extraction, and the selectivity of the extraction defined as Selectivity=Kpartition of catalyst/Kpartition organic material being separated from catalyst.
# . […] The mixture was shaken for 30 minutes, then allowed to settle and phase separate over several hours. The two phases were then separated and analyzed for content. In Table K below, partition coefficient Kp of the catalyst and Texanol as well as the volume ratio of the two phases defined as Vratio=volume of the catalyst containing phase after extraction/volume of the extracting solution phase after extraction is summarized.
# [4] = DMSO, Examples 18 (B 0.8 wt%, 223 ppm Rh), 19 (C 0.8 wt%, 222 ppm Rh), 21 (E 0.6 wt%, 136 ppm Rh)
# [5] = polar solvent W: acetonitrile with 1 wt% water, Examples 24 (B 0.8 wt%, 223 ppm Rh), 25 (E 0.6 wt%, 120 ppm Rh)
structure (smiles),measurement,setting,value
CC=CCC#N [3-pentenenitrile],Kpartition,[1],50
"c1ccc(-c2ccccc2Op2oc3ccccc3c3ccccc3o2)c(Op2oc3ccccc3c3ccccc3o2)c1 [Ligand A, reference compound]",partitioning behavior,"[2]; hexane/acetonitrile, Comparative Example A, control",non-selective for the hydrocarbon phase
same,Kpartition,[2],0.04
CC(C)(C)c1cc(-c2cc(C(C)(C)C)cc(C(C)(C)C)c2Op2oc3ccc(C(C)(C)C)cc3c3cc(C(C)(C)C)ccc3o2)c(Op2oc3ccc(C(C)(C)C)cc3c3cc(C(C)(C)C)ccc3o2)c(C(C)(C)C)c1 [Ligand B],Kpartition,[4],124
same,Kpartition,"acetonitrile, Ligand 0.8 wt%, rhodium 223 ppm, Example 17",19
same,Kpartition,"hexane/acetonitrile, Ligand 1.5 wt%, rhodium 318 ppm, Example 15",34
same,Kpartition,[5],27
same,Kpartition,[2],26
CC(C)(C)CC(C)(C)c1cc(-c2cc(C(C)(C)CC(C)(C)C)cc(C(C)(C)CC(C)(C)C)c2Op2oc3ccccc3c3ccccc3o2)c(Op2oc3ccccc3c3ccccc3o2)c(C(C)(C)CC(C)(C)C)c1 [Ligand C],Kpartition,[4],42
same,Kpartition,"Glutaronitrile, Ligand 0.8 wt%, rhodium 222 ppm, Example 20",43
same,Kpartition,"hexane/acetonitrile, Ligand 0.8 wt%, rhodium 222 ppm, Example 16",28
same,Kpartition Ligand C,"[2]; hexane/DMSO, Example 12",68
same,Kpartition Ligand C,"[2]; hexane/glutaronitrile, Example 13",20
same,Kpartition,[2],38
CCCCCC(C)(C)c1cc(-c2cc(C(C)(C)CCCCC)cc(C(C)(C)CCCCC)c2Op2oc3ccccc3c3ccccc3o2)c(Op2oc3ccccc3c3ccccc3o2)c(C(C)(C)CCCCC)c1 [Ligand D],Kpartition,[2],116
CC(C)(C)CC(C)(C)c1cc(-c2cc(C(C)(C)CC(C)(C)C)cc(C(C)(C)CC(C)(C)C)c2Op2oc3ccc(C(C)(C)C)cc3c3cc(C(C)(C)C)ccc3o2)c(Op2oc3ccc(C(C)(C)C)cc3c3cc(C(C)(C)C)ccc3o2)c(C(C)(C)CC(C)(C)C)c1 [Ligand E],Kpartition,[4],79
same,Kpartition,"DMSO, Ligand 0.6 wt%, rhodium 120 ppm, Example 23",128
same,Kpartition,"acetonitrile, Ligand 0.6 wt%, rhodium 120 ppm, Example 22",250
same,Kpartition,[5],352
same,Kpartition,[2],502
CC(C)(C)c1ccc(OP(Oc2ccccc2-c2ccccc2OP(Oc2ccc(C(C)(C)C)cc2C(C)(C)C)Oc2ccc(C(C)(C)C)cc2C(C)(C)C)Oc2ccc(C(C)(C)C)cc2C(C)(C)C)c(C(C)(C)C)c1 [Ligand F],Kpartition,[2],100
CC1(c2cc(-c3cc(C4(C)CCCCC4)cc(C4(C)CCCCC4)c3Op3oc4ccccc4c4ccccc4o3)c(Op3oc4ccccc4c4ccccc4o3)c(C3(C)CCCCC3)c2)CCCCC1 [Ligand G],Kpartition,[2],19
CCC(C)(C)c1cc(-c2cc(C(C)(C)CC)cc(C(C)(C)CC)c2Op2oc3ccccc3c3ccccc3o2)c(Op2oc3ccccc3c3ccccc3o2)c(C(C)(C)CC)c1 [Ligand H],Kpartition,[2],6
CC(C)(C)c1cc(-c2cc(C(C)(C)C)cc(C(C)(C)C)c2Op2oc3ccccc3c3ccccc3o2)c(Op2oc3ccccc3c3ccccc3o2)c(C(C)(C)C)c1 [Ligand I],Kpartition,[2],2.3
CCCCCCCCP(CCCCCCCC)CCCCCCCC [Ligand J],partition coefficient Kp,[2],> 100
same,Kpartition,[2],> 100
CCN(CC)P(Oc1c(-c2cc(OC)cc(C(C)(C)C)c2OP(N(CC)CC)N(CC)CC)cc(OC)cc1C(C)(C)C)N(CC)CC [Ligand K],partition coefficient Kp,[2],5
same,Kpartition,[2],5
CC(C)(C)c1ccc(Op2oc3c(C(C)(C)C)cc(C(C)(C)C)cc3c3cc(C(C)(C)C)cc(C(C)(C)C)c3o2)c(C(C)(C)C)c1 [Ligand M],Kpartition,[2],25
CC(C)C(=O)OCC(C)(C)C(O)C(C)C (stereo not shown) [Texanol],Kpartition Texanol,"[3]; hexane/acetonitrile, Vratio 5.6, Example 40",0.4
same,Kpartition Texanol,"[3]; toluene vs acetonitrile containing water 4/1, Example 41",96
CCCC=O [butyraldehyde],Kpartition,[1],3.2
CCC=O [propionaldehyde],Kpartition,[1],9.2
CCCCC=O [valeraldehyde],Kpartition,[1],2.0
